From PubChem BioAssay AID212 (DTP/NCI, 2004) come the findings set out here.

“And” between values parts separate entries of the source, which are not always exact repeats. Equal entries are not always repeated. Results filed as inconclusive are left out.

The assay concerns BDF1 mice, colon carcinoma 38 sc, T/C %. Put plainly: NCI In Vivo Anticancer Drug Screen. Data for tumor model Colon Carcinoma 38 (subcutaneous) in B6D2F1 (BDF1) mice. The following applies: endpoint: median tumor weight (est.), schedule: Q07DX002 (ip), higher = larger tumour. A digest of the protocol: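 Ratio of survival or tumor size, compound-treated animals relative to vehicle controls, in tumor-bearing mice.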

Setting [1] is: dose: 12.5 mg/kg/injection, vehicle: Klucel (hydroxypropylcellulose) (HPC).
Where [2] appears, read: dose: 50.0 mg/kg/injection, vehicle: Klucel (hydroxypropylcellulose) (HPC).
The mark [3] stands for this setting: dose: 100.0 mg/kg/injection, vehicle: Klucel (hydroxypropylcellulose) (HPC).
[4] abbreviates: dose: 200.0 mg/kg/injection, vehicle: Klucel (hydroxypropylcellulose) (HPC).
[5] abbreviates: dose: 400.0 mg/kg/injection, vehicle: Klucel (hydroxypropylcellulose) (HPC).
Setting [6] is: dose: 200.0 mg/kg/injection, vehicle: saline with Tween-80.
The mark [7] stands for this setting: dose: 12.5 mg/kg/injection, vehicle: water.
The mark [8] stands for this setting: dose: 25.0 mg/kg/injection, vehicle: water.
[9] abbreviates: dose: 4.0 mg/kg/injection, vehicle: saline.
[10] abbreviates: dose: 25.0 mg/kg/injection, vehicle: Klucel (hydroxypropylcellulose) (HPC).
Setting [11] is: dose: 200.0 mg/kg/injection, vehicle: saline.

With `O=c1[nH]cccc1O`, the T/C (dose: 32.0 mg/kg/injection, vehicle: saline with Tween-80) is 101 % of control; the T/C (dose: 62.0 mg/kg/injection, vehicle: saline with Tween-80) was 177 % of control; the T/C (dose: 62.5 mg/kg/injection, vehicle: saline with Tween-80) was 100 % of control; the T/C (dose: 64.0 mg/kg/injection, vehicle: saline with Tween-80) is 76 % of control; the T/C (dose: 125.0 mg/kg/injection, vehicle: saline with Tween-80) was 87 % of control; the T/C (dose: 128.0 mg/kg/injection, vehicle: saline with Tween-80) is 94 % of control. Also, the T/C (dose: 250.0 mg/kg/injection, vehicle: saline with Tween-80) is 87 % of control; the T/C (dose: 256.0 mg/kg/injection, vehicle: saline with Tween-80) was 58 % of control; the T/C (dose: 512.0 mg/kg/injection, vehicle: saline with Tween-80) is 20 % of control.

`COc1c(CNC(=O)CCl)cc2[nH]c(C)cc2c1CNC(=O)CCl`: the T/C runs as follows: under setting [1], 101 % of control; under setting [2], 98 % of control; under setting [3], 93 % of control; under setting [4], 83 % of control; under setting [5], 111 % of control.

With `Nc1nc(-c2ccccc2)c(Br)c(=O)[nH]1`, the T/C by setting is: under setting [6], 105 % of control; (dose: 1600.0 mg/kg/injection, vehicle: saline with Tween-80) 36 % of control and 43 % of control.

`Cc1cc(=NO)cc(C)n1O`: the T/C (dose: 50.0 mg/kg/injection, vehicle: distilled water + alcohol) is 80 % of control; the T/C (dose: 100.0 mg/kg/injection, vehicle: distilled water + alcohol) is 80 % of control; the T/C (dose: 200.0 mg/kg/injection, vehicle: distilled water + alcohol) is 98 % of control; the T/C (dose: 400.0 mg/kg/injection, vehicle: distilled water + alcohol) is 106 % of control; the T/C (dose: 800.0 mg/kg/injection, vehicle: distilled water + alcohol) was 86 % of control.

Consider `O=NN(CCCl)C(=O)NCCO`, for which the T/C by setting is: (dose: 3.12 mg/kg/injection, vehicle: water) 75 % of control; under setting [7], 18 % of control and 34 % of control; under setting [8], 14 % of control.

For `CC[C@]1(O)C[C@H]2CN(CCc3c([nH]c4ccccc34)[C@@](C(=O)OC)(c3cc4c(cc3OC)N(C=O)[C@H]3[C@@](O)(C(=O)OC)[C@H](OC(C)=O)[C@]5(CC)C=CCN6CC[C@]43[C@@H]65)C2)C1`, the T/C (dose: 0.01 mg/kg/injection, vehicle: saline) was 123 % of control; the T/C (dose: 0.03 mg/kg/injection, vehicle: saline) is 94 % of control; the T/C (dose: 0.06 mg/kg/injection, vehicle: saline) was 95 % of control; the T/C (dose: 0.12 mg/kg/injection, vehicle: saline) was 54 % of control; the T/C (dose: 1.0 mg/kg/injection, vehicle: saline) was 96 % of control and 106 % of control; the T/C under setting [9] was 43 % of control and 63 % of control.

As to `CCOC(=O)Nc1cc2c(c(N)n1)N=C(CN(C)c1ccccc1)CN2`, the T/C is, setting by setting: under setting [10], 88 % of control; under setting [2], 63 % of control and 68 % of control.

Turning to `COC12C(COC(N)=O)C3=C(C(=O)C(C)=C(N)C3=O)N1CC1C2N1C` (stereo not drawn), the T/C is, setting by setting: (dose: 2.0 mg/kg/injection, vehicle: saline) 93 % of control; under setting [9], 87 % of control; (dose: 8.0 mg/kg/injection, vehicle: saline) 100 % of control; (dose: 16.0 mg/kg/injection, vehicle: saline) 55 % of control; (dose: 32.0 mg/kg/injection, vehicle: saline) 11 % of control; (dose: 64.0 mg/kg/injection, vehicle: saline) 12 % of control.

Consider `C[C@H]1C[C@@H]2[C@H]([C@@H](O)C[C@@]3(C)[C@H]2CC[C@]3(O)C(=O)CO)[C@@]2(C)C=CC(=O)C=C12`, for which the T/C by setting is: (dose: 6.25 mg/kg/injection, vehicle: Klucel (hydroxypropylcellulose) (HPC)) 82 % of control; under setting [10], 87 % of control and 88 % of control; under setting [3], 111 % of control and 86 % of control; under setting [4], 87 % of control and 88 % of control; under setting [5], 93 % of control.

For the molecule `COc1cccc2c1C(=O)c1c(O)c3c(c(O)c1C2=O)C[C@@](O)(C(O)CO)C[C@@H]3OC1CC(N(Cc2ccccc2)Cc2ccccc2)C(O)C(C)O1` (stereo partly drawn), the T/C by setting is: under setting [7], 75 % of control; under setting [8], 72 % of control; (dose: 50.0 mg/kg/injection, vehicle: water) 36 % of control.

Take `F[B-](F)(F)F`: the T/C is, setting by setting: (dose: 12.5 mg/kg/injection, vehicle: gum acacia) 105 % of control; (dose: 25.0 mg/kg/injection, vehicle: gum acacia) 90 % of control; (dose: 50.0 mg/kg/injection, vehicle: gum acacia) 95 % of control; (dose: 200.0 mg/kg/injection, vehicle: gum acacia) 64 % of control; (dose: 400.0 mg/kg/injection, vehicle: gum acacia) 77 % of control.

Take `CC(C)(C)C1CCCCC1`: the T/C runs as follows: under setting [1], 100 % of control; under setting [10], 124 % of control; under setting [3], 104 % of control; under setting [4], 77 % of control.

Turning to `C[Si](C)(C)OSc1ccccc1[N+](=O)[O-]`, the T/C runs as follows: under setting [10], 118 % of control; under setting [2], 113 % of control; under setting [3], 110 % of control; (dose: 800.0 mg/kg/injection, vehicle: Klucel (hydroxypropylcellulose) (HPC)) 86 % of control.

As to `BrCC[Se]c1ccccc1`, the T/C by setting is: (dose: 6.25 mg/kg/injection, vehicle: saline with Tween-80) 158 % of control and 177 % of control; (dose: 12.5 mg/kg/injection, vehicle: saline with Tween-80) 100 % of control and 104 % of control; (dose: 50.0 mg/kg/injection, vehicle: saline with Tween-80) 107 % of control; under setting [6], 178 % of control.

For `C(CSC1=NCCN1)CSC1=NCCN1`, the T/C was 112 % of control (dose: 25.0 mg/kg/injection, vehicle: saline); 96 % of control (dose: 50.0 mg/kg/injection, vehicle: saline); 120 % of control under setting [11].

`CNC=O`: the T/C runs as follows: under setting [11], 110 % of control; (dose: 400.0 mg/kg/injection, vehicle: saline) 150 % of control; (dose: 800.0 mg/kg/injection, vehicle: saline) 55 % of control; (dose: 1600.0 mg/kg/injection, vehicle: saline) 75 % of control.

Consider `Nc1ncnc2c1ncn2C1OC(CO)CC1O` (stereo not drawn), for which the T/C (dose: 75.0 mg/kg/injection, vehicle: Klucel (hydroxypropylcellulose) (HPC)) is 110 % of control; the T/C (dose: 150.0 mg/kg/injection, vehicle: Klucel (hydroxypropylcellulose) (HPC)) was 88 % of control; the T/C (dose: 300.0 mg/kg/injection, vehicle: Klucel (hydroxypropylcellulose) (HPC)) was 54 % of control.
